Series [1] can be described thus: Solubility of dapivirine in water. Format: physicochemical.
The test system of series [2] is wild-type HIV-1 strains and HIV-1 strains harboring different resistance-inducing mutations. To be noted: Das et al., J. Med Chem., 2004; cited from earlier work.

The source of these data is patent US11259956B2, “Combination therapy intravaginal rings” (International Partnership For Microbicides, Inc., priority 2013, dated 2022).

A value given as a limit tells only on which side of the number the result lay.

With `Cc1cc(C)c(Nc2ccnc(Nc3ccc(C#N)cc3)n2)c(C)c1` [dapivirine, 4-[[4-[(2,4,6-trimethylphenyl)amino]-2-pyrimidinyl]amino]benzonitrile], in series [1], the “Solubility in water” value is “virtually insoluble in water” and the solubility was less than 1 µg/mL. Further, in series [2], the “Activity against HIV-1 strains” value is on record as “potent activity”.
